The conditions of test [1]: rats, exogenously applied agonist (Shirashi et al 2005); cited from earlier work.
For test [2], the target named is T1, CRTH2 receptor (Homo sapiens, UniProt Q9Y5Y4).
T1 sequence (Q9Y5Y4 1-395): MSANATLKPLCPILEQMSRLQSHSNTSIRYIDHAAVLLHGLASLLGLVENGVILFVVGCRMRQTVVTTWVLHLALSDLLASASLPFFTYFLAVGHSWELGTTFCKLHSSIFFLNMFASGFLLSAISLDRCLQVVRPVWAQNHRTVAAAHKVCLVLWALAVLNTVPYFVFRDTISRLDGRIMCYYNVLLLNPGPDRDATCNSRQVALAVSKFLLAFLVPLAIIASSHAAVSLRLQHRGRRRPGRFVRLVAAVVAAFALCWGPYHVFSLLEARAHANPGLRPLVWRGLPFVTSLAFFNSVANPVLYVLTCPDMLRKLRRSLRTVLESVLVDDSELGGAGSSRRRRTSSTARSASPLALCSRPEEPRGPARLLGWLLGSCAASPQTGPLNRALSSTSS
The experiment in a line: CRTH2 Radioligand Binding assay ([3H]-PGD2 displacement, SPA). Also noted: expressed in transfected cells; host or cells: HEK cell membranes. The settings on record: HEK cell membranes expressing the CRTH2 receptor, 1 nM [3H]-PGD2; Ki from IC50 by Cheng-Prusoff. How it is done:
Radioligand Binding Assay
The receptor binding assay is performed in a final volume of 200 μL binding buffer [10 mM BES (pH 7.4), 1 mM EDTA, 10 mM manganese chloride, 0.01% BSA] and 1 nM [^3H]-PGD2 (Amersham Biosciences UK Ltd). Ligands are added in assay buffer containing a constant amount of DMSO (1% by volume). Total binding is determined using 1% by volume of DMSO in assay buffer and non-specific binding is determined using 10 μM of unlabeled PGD2 (Sigma). Human embryonic kidney (HEK) cell membranes (3.5 μg) expressing the CRTH2 receptor are incubated with 1.5 mg wheatgerm agglutinin SPA beads and 1 nM [^3H]-PGD2 (Amersham Biosciences UK Ltd) and the mixture incubated for 3 hours at room temperature. Bound [^3H]-PGD2 is detected using a Microbeta TRILUX liquid scintillation counter (Perkin Elmer). Compound IC50 value is determined using a 6-point dose response curve in duplicate with a semi-log compound dilution series. IC50 calculations are performed using Excel and XLfit (Microsoft), and this value is used to determine a Ki value for the test compound using the Cheng-Prusoff equation.

For test [3], the target named is T1, CRTH2 receptor. Put plainly: Calcium mobilisation (flux) functional assay. Particulars: CHO-K1 cells co-expressing CRTH2 receptor and Gα16; PGD2 agonist at EC80. Further details: expressed in transfected cells. Type of test: cell-based. How it is done: Calcium Mobilisation (Flux) Assay
Stable CHO-K1 cells co-expressing the CRTH2 receptor and the G-protein Gα16 are seeded (40,000 cells per well in a plating volume of 75 μL in F-12 Hams supplemented with 1% foetal bovine serum) into collagen-coated 96-well plates 24 hours prior to the assay. The cells are then loaded with a fluorescence-imaging plate reader (FLIPR) calcium kit dye (Calcium 3 kit, Molecular Devices Ltd) containing 5 mM final concentration of probenecid and incubated at 37° C. for 1 hour in a 5 % CO2 atmosphere. The fluorescence emission caused by intracellular calcium mobilization elicited by the PGD2 at the CRTH2 receptor is determined with a FLEXstation benchtop scanning and integrated fluid transfer workstation (Molecular Devices Ltd). To detect antagonists and determine compound IC50, compounds are pre-incubated at varying concentrations with the loaded cells for 15 minutes at 37° C., 5 % CO2, prior to the addition of the agonist at its EC80 value. Compounds and agonist are added in Hanks balanced salt solution containing 20 mM HEPES and 0.1% BSA). The fractional response values for each well are calculated by subtracting the basal response from the peak response. Results are calculated as the mean of triplicate wells using Excel and XLfit (Microsoft).
In general terms: A change in cytosolic calcium serves as a functional read-out for many receptors and channels.

As for `O=C(O)CCCCCCC1C(=O)NC(=O)N1CCC(O)C1CCCCC1` (stereo not drawn) [BW 245C], the pulmonary eosinophilia entry in test [1] is on record as “no effect”.

Turning to `Cc1c(CC(=O)O)c2ccc(F)cn2c1Sc1ccc(Cl)cc1Cl` [Example 1, [3-(2,4dichlorophenylsulfanyl)-6-fluoro-2-methylindolizin-1-yl]acetic acid], the affinity at CRTH2 receptor [2] corresponds to a Ki of 27 nM.

As for `Cc1c(CC(=O)O)c2ccc(F)cn2c1Sc1ccc(S(C)(=O)=O)cc1F` [Example 2, [6-fluoro-3-(2-fluoro-4-methanesulfonylphenylsulfanyl)-2-methylindolizin-1-yl]acetic acid], the IC50 – broadly, the midpoint of a concentration-inhibition curve – on CRTH2 receptor [3] turned out to be 6.6 nM. Moreover, at CRTH2 receptor [2], the affinity corresponds to a Ki of 0.2 nM.

As to `Cc1c(CC(=O)O)c2ccc(F)cn2c1Sc1ccc(S(C)(=O)=O)cc1C(F)(F)F` [Example 3, [6-fluoro-3-(4-methanesulfonyl-2-trifluoromethylphenylsulfanyl)-2-methylindolizin-1-yl]acetic acid], the IC50 on CRTH2 receptor [3] came to 11 nM. Moreover, the affinity at CRTH2 receptor [2], expressed as Ki, was 0.9 nM.

For the compound `Cc1c([C@@H](C)C(=O)O)c2ccc(F)cn2c1Sc1ccc(S(C)(=O)=O)cc1` [Example 4, (R)-2-[6-fluoro-3-(4-methanesulfonylphenylsulfanyl)-2-methylindolizin-1-yl]propionic acid], the affinity at CRTH2 receptor [2], expressed as Ki, was 29 nM.

`CCS(=O)(=O)c1ccc(Sc2c(C)c(CC(=O)O)c3ccc(F)cn23)cc1` [Example 5, [3-(4-ethanesulfonylphenylsulfanyl)+fluoro-2-methylindolizin-1-yl]acetic acid]: the IC50 on CRTH2 receptor [3] stood at 8.9 nM. Besides, the Ki – broadly, a measure of affinity in units of concentration, obtained from inhibition or displacement – on CRTH2 receptor [2] is 0.8 nM.

Compound `Cc1c([C@H](C)C(=O)O)c2ccc(F)cn2c1Sc1ccc(S(C)(=O)=O)cc1` [Example 6, (S)-2-[6-fluoro-3-(4-methanesulfonylphenylsulfanyl)-2-methylindolizin-1-yl]propionic acid] came in with a Ki on CRTH2 receptor [2] of 57 nM.

`CCS(=O)(=O)Nc1ccc(S(=O)(=O)c2c(C)c(CC(=O)O)c3ccc(F)cn23)cc1` [Example 7] returned a Ki at CRTH2 receptor [2] of 47 nM.

For `Cc1c(CC(=O)O)c2cc(Cl)c(F)cn2c1Sc1ccc(S(C)(=O)=O)cc1` [Example 8, [7-chloro-6-fluoro-3-(4-methanesulfonylphenylsulfanyl)-2-methylindolizin-1-yl]acetic acid], the Ki at CRTH2 receptor [2] turned out to be 0.4 nM. Compared with the last compound, the Ki is about 120-fold lower.

The compound `Cc1c(CC(=O)O)c2cc(C#N)ccn2c1Sc1ccc(S(C)(=O)=O)cc1Cl` [Example 9, [3-(2-chloro-4-methanesulfonylphenylsulfanyl)-7-cyano-2-methylindolizin-1-yl]acetic acid] yielded a Ki at CRTH2 receptor [2] of 2.9 nM. Compared with the last compound, the Ki is about 7.2-fold higher.

At CRTH2 receptor [2], `Cc1c(CC(=O)O)c2ccc(C#N)cn2c1Cc1ccc(S(C)(=O)=O)cc1` [Example 10, [6-cyano-3-(4-methanesulfonylbenzyl)-2-methylindolizin-1-yl]acetic acid] yielded a Ki of 1.7 nM. This Ki is about 1.7-fold lower than that of the compound before.

On to `Cc1c(CC(=O)O)c2cc(C#N)ccn2c1Cc1ccc(Cl)cc1` [Example 11, [3-(4-chlorobenzyl)-7-cyano-2-methylindolizin-1-yl]acetic acid], for which, at CRTH2 receptor [2], affinity was put at a Ki of 26 nM. Against the preceding compound, the Ki is about 15-fold higher.

Compound `Cc1c(CC(=O)O)c2ccc(C#N)cn2c1Cc1ccc2cc(F)ccc2n1` [Example 12, [6-cyano-3-(6-fluoroquinolin-2-ylmethyl)-2-methylindolizin-1-yl]acetic acid] had a Ki at CRTH2 receptor [2] of 7.2 nM.

In turn, `COc1ccc(Sc2c(C)c(CC(=O)O)c3ccc(F)cn23)cc1` [Example 13, [6-fluoro-3-(4-methoxyphenylsulfanyl)-2-methylindolizin-1-yl]acetic acid] returned a Ki on CRTH2 receptor [2] of 44 nM.

`COc1ccc(Sc2c(C)c(CC(=O)O)c3cc(Cl)c(F)cn23)cc1` [Example 14, [7-chloro-6-fluoro-3-(4-methoxyphenylsulfanyl)-2-methylindolizin-1-yl]acetic acid] returned a Ki on CRTH2 receptor [2] of 23 nM.

`Cc1c(CC(=O)O)c2ccc(F)cn2c1Sc1ccc(S(=O)(=O)NC2CC2)cc1` [Example 16, [3-(4-cyclopropylsulfamoylphenylsulfanyl)-6-fluoro-2-methylindolizin-1-yl]acetic acid]: the IC50 on CRTH2 receptor [3] is 22 nM. Further, the affinity on CRTH2 receptor [2], expressed as Ki, was 0.6 nM.

For the compound `O=C(O)CCC/C=C\C[C@@H]1[C@@H](/C=C/[C@@H](O)COc2ccc(I)cc2)[C@H]2CC[C@@H]1O2` [I-BOP], the pulmonary eosinophilia result in test [1] is “no effect”.

(Values after patent publication US20100010034A1, “CRTH2 ANTAGONISTS” (priority 2006, published 2010).)
